Patent US20210045383A1, “ORGANIC METABOLITE COMPOSITIONS AND METHODS OF USE AS MITICIDES FOR HONEY BEES” (priority 2018, published 2021)

Key:
Varroa destructor = experiment: Test hives treated with miticide treatment strips; mite levels by sugar roll method and sticky board mite drops; conditions: for mite loads once treatment resumed: after skipped mid-summer treatment (mite counts above 3 per 100 bees in September); for mites loads in the treated hives: single treatments on a three-month schedule
honey bees = conditions: applied using the Dribble Method; cited from earlier work

SMILES | mite loads once treatment resumed (Varroa destructor) | mites loads in the treated hives (Varroa destructor) | bee mortality (honey bees)
N[C@@H](CC(=O)O)C(=O)O [aspartic acid] | reduced mite loads to an acceptable level | zero | –
O=C(O)C(=O)O [oxalic acid] | – | – | Increased bee mortality
N[C@@H](CCC(=O)O)C(=O)O [glutamic acid] | reduced mite loads to an acceptable level | zero | –
